Assay results published in ChEMBL document CHEMBL5726074, “Histone demethylase inhibitors” (2017).

How the values were obtained:
[1] = molecular target: Lysine-specific demethylase 5A (Homo sapiens, UniProt P29375); test: Enzymatic Assay: The enzymatic assay of Jarid1A activity is based upon Time Resolved-Fluorescence Resonance Energy Transfer (TR-FRET) detection. The ability of test compounds to inhibit the activity of Jarid1A was determined in 384-well plate format under the following reaction conditions: 1 nM Jarid1A, 300 nM H3K4me3-biotin labeled peptide (Anaspec cat #64357), 2 μM alpha-ketoglutaric acid in …
[2] = molecular target: T1, Lysine-specific demethylase 4C (Homo sapiens, UniProt Q9H3R0); test: Enzymatic Assay: The ability of test compounds to inhibit the activity of JMJD2C was determined in 384-well plate format under the following reaction conditions: 0.3 nM JMJD2C, 300 nM H3K9me3-biotin labeled peptide (Anaspec cat #64360), 2 μM alpha-ketoglutaric acid in assay buffer of 50 mM HEPES, pH7.3, 0.005% Brij35, 0.5 mM TCEP, 0.2 mg/ml BSA, 50 μM sodium L-ascorbate, and 2 μM ammonium iron(II) sulfate. Reaction product was determined quantitatively by TR-FRET after the addition of detection reagent Phycolink Streptavidin-allophycocyanin (Prozyme) and Europium-anti-di-methylated histone H3 lysine 9 (H3K9me2) antibody (PerkinElmer) in the presence of 5 mM EDTA in LANCE detection buffer (PerkinElmer) at a final concentration of 50 nM and 1 nM, respectively.The assay reaction was initiated by the following: 2 μl of the mixture of 900 nM H3K9me3-biotin labeled peptide and 6 μM alpha-ketoglutaric acid with 2 μl of 11-point serial diluted inhibitor in 3% DMSO were added to each well of the plate, followed by the addition of 2 μl of 0.9 nM JMJD2C to initiate the reaction. The reaction mixture was incubated at room temperature for 30 minutes, and terminated by the addition of 6 μl of 5 mM EDTA in LANCE detection buffer containing 100 nM Phycolink Streptavidin-allophycocyanin and 2 nM Europium-anti-H3K9me2 antibody. […]
T1 sequence (Q9H3R0 whole entry): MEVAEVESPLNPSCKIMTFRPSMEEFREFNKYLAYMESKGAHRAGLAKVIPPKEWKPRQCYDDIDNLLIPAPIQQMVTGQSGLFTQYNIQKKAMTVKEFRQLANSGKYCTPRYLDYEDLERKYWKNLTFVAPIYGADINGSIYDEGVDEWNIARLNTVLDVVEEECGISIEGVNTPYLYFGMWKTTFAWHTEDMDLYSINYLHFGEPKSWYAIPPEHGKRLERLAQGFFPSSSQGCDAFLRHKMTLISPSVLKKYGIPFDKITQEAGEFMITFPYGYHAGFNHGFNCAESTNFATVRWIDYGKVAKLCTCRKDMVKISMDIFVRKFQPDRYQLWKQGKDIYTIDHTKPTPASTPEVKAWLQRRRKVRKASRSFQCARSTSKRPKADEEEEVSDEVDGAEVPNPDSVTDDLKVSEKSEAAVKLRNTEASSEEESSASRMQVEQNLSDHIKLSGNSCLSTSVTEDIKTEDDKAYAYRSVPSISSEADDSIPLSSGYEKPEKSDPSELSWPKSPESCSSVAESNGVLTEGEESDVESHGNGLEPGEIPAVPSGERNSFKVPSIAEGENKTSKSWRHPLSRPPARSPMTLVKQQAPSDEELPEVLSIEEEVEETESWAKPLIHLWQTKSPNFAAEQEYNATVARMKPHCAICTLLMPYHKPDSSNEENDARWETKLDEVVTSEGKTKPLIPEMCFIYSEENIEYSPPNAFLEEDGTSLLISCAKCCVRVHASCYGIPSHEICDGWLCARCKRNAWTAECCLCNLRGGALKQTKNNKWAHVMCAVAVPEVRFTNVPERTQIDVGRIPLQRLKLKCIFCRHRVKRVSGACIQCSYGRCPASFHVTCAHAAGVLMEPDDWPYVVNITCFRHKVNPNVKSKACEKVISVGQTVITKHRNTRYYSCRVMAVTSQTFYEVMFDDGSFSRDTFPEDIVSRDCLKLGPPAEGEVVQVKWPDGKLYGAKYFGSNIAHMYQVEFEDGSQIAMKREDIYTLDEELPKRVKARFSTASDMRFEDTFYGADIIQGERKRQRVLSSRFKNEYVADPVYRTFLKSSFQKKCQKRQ

[3] = molecular target: Lysine-specific demethylase 5B (Homo sapiens, UniProt Q9UGL1); test: Enzymatic Assay: The ability of test compounds to inhibit the activity of Jarid1B was determined in 384-well plate format under the following reaction conditions: 0.8 nM Jarid1B, 300 nM H3K4me3-biotin labeled peptide (Anaspec cat #64357), 2 μM alpha-ketoglutaric acid in assay buffer of 50 mM HEPES, pH7.3, 0.005% Brij35, 0.5 mM TCEP, 0.2 mg/ml BSA, 50 μM sodium L-ascorbate, and 2 μM ammonium iron(II) sulfate. Reaction product was determined quantitatively by TR-FRET after the addition of detection reagent Phycolink Streptavidin-allophycocyanin (Prozyme) and Europium-anti-mono- or di-methylated histone H3 lysine 4 (H3K4me1-2) antibody (PerkinElmer) in the presence of 5 mM EDTA in LANCE detection buffer (PerkinElmer) at a final concentration of 25 nM and 1 nM, respectively.The assay reaction was initiated by the following: 2 μl of the mixture of 900 nM H3K4me3-biotin labeled peptide and 6 μM alpha-ketoglutaric acid with 2 μl of 11-point serial diluted inhibitor in 3% DMSO was added to each well of the plate, followed by the addition of 2 μl of 2.4 nM Jarid1B to initiate the reaction. The reaction mixture was incubated at room temperature for 30 minutes, and terminated by the addition of 6 μl of 5 mM EDTA in LANCE detection buffer containing 50 nM Phycolink Streptavidin-allophycocyanin and 2 nM Europium-anti-H3K4me1-2 antibody. […]

Measured: IC50

Sequence of Lysine-specific demethylase 5A (P29375 whole entry): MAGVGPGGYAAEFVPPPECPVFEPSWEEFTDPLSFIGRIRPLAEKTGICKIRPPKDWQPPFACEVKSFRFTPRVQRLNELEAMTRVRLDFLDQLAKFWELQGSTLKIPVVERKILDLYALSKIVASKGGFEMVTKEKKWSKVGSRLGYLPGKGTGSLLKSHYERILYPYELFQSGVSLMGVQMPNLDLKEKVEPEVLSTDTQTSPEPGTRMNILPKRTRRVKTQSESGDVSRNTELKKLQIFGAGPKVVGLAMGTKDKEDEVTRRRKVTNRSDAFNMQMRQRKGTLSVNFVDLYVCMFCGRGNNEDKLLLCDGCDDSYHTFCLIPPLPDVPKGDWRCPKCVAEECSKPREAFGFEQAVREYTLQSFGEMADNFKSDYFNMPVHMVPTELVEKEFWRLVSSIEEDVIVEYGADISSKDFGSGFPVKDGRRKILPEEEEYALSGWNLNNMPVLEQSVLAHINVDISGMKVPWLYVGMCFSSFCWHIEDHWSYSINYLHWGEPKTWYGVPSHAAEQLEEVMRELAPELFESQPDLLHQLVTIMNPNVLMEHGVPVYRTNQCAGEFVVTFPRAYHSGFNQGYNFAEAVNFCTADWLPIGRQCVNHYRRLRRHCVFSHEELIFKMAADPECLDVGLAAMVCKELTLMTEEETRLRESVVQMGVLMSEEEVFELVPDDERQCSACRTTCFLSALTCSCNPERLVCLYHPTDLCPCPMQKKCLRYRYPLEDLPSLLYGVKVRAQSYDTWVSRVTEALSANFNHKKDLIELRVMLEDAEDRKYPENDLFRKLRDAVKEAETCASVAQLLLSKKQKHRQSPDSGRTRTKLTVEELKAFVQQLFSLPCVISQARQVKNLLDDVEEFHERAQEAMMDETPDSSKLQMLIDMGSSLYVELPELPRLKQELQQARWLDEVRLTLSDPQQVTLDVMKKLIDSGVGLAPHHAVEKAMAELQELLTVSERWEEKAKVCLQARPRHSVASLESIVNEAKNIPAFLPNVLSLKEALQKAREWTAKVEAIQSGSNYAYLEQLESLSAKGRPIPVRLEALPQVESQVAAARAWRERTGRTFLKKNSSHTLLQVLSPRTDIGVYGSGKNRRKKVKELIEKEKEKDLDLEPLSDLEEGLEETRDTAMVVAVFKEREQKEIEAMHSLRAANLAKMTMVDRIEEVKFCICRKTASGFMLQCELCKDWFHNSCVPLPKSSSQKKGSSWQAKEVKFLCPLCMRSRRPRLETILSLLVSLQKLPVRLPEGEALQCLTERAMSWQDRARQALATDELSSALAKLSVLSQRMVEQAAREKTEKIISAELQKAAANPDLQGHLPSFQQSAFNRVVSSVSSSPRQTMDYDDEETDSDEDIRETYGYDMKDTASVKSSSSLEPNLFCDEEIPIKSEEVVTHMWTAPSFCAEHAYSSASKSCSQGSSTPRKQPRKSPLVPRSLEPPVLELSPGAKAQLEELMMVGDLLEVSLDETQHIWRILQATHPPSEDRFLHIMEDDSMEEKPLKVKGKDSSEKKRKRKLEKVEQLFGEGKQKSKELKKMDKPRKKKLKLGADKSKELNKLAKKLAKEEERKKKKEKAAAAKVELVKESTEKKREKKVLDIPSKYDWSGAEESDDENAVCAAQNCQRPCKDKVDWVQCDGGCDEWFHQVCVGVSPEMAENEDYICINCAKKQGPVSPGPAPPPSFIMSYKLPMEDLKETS
Sequence of Lysine-specific demethylase 5B (Q9UGL1 whole entry): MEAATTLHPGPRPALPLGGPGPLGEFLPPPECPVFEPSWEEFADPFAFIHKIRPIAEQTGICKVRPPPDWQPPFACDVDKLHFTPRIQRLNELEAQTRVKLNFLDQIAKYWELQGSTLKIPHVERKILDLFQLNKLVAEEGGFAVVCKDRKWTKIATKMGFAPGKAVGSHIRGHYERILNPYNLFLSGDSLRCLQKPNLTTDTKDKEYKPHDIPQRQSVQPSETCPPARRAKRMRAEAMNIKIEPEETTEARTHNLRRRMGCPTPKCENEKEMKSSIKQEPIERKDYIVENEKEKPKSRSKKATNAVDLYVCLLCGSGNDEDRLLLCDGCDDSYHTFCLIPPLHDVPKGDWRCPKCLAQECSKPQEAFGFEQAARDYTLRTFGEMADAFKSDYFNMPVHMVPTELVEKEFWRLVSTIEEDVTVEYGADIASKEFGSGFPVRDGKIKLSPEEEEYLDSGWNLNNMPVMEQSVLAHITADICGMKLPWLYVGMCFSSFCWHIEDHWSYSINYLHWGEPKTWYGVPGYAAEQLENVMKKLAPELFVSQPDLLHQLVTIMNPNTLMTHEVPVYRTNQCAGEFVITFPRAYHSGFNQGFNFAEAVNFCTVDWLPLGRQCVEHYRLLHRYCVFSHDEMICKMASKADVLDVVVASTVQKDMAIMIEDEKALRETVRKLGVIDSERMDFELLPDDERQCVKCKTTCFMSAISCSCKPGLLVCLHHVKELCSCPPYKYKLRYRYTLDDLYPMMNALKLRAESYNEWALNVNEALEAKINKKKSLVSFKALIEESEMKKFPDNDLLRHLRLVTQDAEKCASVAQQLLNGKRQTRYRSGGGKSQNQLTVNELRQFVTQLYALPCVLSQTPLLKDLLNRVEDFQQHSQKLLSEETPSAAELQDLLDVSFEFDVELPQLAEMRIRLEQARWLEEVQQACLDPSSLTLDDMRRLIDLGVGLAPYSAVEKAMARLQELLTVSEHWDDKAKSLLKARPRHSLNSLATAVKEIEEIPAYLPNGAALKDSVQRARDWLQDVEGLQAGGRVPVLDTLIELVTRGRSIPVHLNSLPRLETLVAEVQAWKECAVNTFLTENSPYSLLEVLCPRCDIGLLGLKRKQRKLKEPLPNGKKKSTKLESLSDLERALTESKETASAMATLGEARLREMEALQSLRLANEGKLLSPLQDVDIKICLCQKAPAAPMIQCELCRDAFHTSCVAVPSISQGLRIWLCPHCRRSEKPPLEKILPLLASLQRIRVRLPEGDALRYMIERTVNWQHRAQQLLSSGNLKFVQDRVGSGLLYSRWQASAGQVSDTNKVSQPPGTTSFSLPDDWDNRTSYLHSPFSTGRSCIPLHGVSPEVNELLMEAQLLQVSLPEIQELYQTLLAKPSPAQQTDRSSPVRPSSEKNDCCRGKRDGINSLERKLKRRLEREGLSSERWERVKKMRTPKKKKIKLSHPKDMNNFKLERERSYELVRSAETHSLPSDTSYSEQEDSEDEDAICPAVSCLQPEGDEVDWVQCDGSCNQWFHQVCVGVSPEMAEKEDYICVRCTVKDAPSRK

O=C(O)c1ccncc1NCC1CCc2ccccc21 (stereo not drawn)
< 0.1 µM: [1] | [2] | [3]
